According to US20120022121A1, “INDOLES, DERIVATIVES AND ANALOGS THEREOF AND USES THEREFOR” (priority 2007, published 2012):
Read-outs that look alike come from different tables or passages of the source.

Legend:
[1] = tested on: MRP1 (over-expressed in the cells); assay: Growth inhibition assay (96 h); format: cell-based, human; conditions: human, HEK293 cells over-expressing MRP1 (HEK293-MRP1); HEK293-MRP1, MRP1 over-expressed, 96 h
[2] = tested on: HEK293-MRP1; assay: Growth inhibition assay (96 h); format: cell-based, human; conditions: for resistance factor (ratio of IC50 resistant subline to parental cell line): HEK293-MRP1 vs HEK293-pcDNA3.1
[3] = tested on: TSU-Pr1; assay: Growth inhibition assay (SRB, 96 h); format: cell-based; conditions: Homo sapiens, TSU-Pr1, 96 h
From the text: (§1) MTT (3-(4,5-dimethylthiazol-2-yl)-2,5-diphenyltetrazolium bromide) assay was also used for the leukemia cell lines. […] Cells were stained with SRB solution or MTT solution.

[4] = tested on: MCF-7; assay: Growth inhibition assay (SRB, 96 h); format: cell-based; conditions: Homo sapiens, MCF7; MCF-7, 96 h
From the text: as §1

[5] = tested on: HT-29; assay: Growth inhibition assay (SRB, 96 h); format: cell-based; conditions: Homo sapiens, HT-29, 96 h
From the text: as §1

[6] = tested on: PC-3 xenografts; assay: In vivo antitumor efficacy, PC-3 xenograft; conditions: 5 mg/kg
[7] = tested on: MRP2 (over-expressed in the cells); assay: Growth inhibition assay (96 h); format: cell-based, human; conditions: human, HEK293 cells over-expressing MRP2 (HEK293-MRP2); HEK293-MRP2, MRP2 over-expressed, 96 h
[8] = tested on: HEK293-MRP2; assay: Growth inhibition assay (96 h); format: cell-based, human; conditions: for resistance factor (ratio of IC50 resistant subline to parental cell line): HEK293-MRP2 vs HEK293-pcDNA3.1
[9] = tested on: K562; assay: Growth inhibition assay (MTT, 96 h); format: cell-based; conditions: Homo sapiens, K562 (parental)
From the text: as §1

[10] = tested on: PC-3 cells; assay: Indirect immunofluorescence microscopy of microtubules; format: cell-based, human; conditions: 24 h, anti-α-tubulin-FITC
Method: PC-3 cells were plated on poly-D-lysine coated glass cover slips in 6-well plates (5×10^4 cells/well) the day before treatment. After cells were incubated with cytotoxic agents at 37° C. for 24 h, cells were fixed on the cover slips with 4% formaldehyde in PBS for 10 min and permeabilized by 2% Triton-X in PBS for 5 min at rt. Fixed cells were blocked with 3% bovine serum albumin in TBST for 30 min and incubated with anti-α-tubulin-FITC antibody (1:100 dilution) at 4° C. overnight. Cover slips were mounted on slides using mounting medium with 4′,6-diamidino-2-phenylindole (DAPI), followed by microscopic analysis with a Zeiss Axioplan 2 fluorescent microscope (Carl Zeiss, Thornwood, N.Y.). Images were acquired with a Zeiss Axiocam HRc, using Zeiss AxioVision.

[11] = tested on: PC-3 cells; assay: Cell cycle analysis (PI staining, FACS); format: cell-based, human; conditions: Homo sapiens; PC-3, 24 h, 0.1 nM to 1 μM; read-out: EC50 of cell cycle arrest in G2M phase
Method: Cell cycle distribution was determined by propidium iodide (PI) staining. Treated cells were washed with PBS and fixed with 70% ice-cold ethanol overnight. Fixed cells were then stained with 20 μg/mL of PI in the presence of RNase A (300 μg/mL) at 37° C. for 30 min. Cell cycle distribution was analyzed by fluorescence-activated cell sorting (FACS).

[12] = tested on: human cancer cell lines from prostate, colon, breast, and bladder; assay: Cell proliferation by SRB assay, panel of cell lines; format: cell-based; conditions: read-out: IC50 values, range over cell lines
Method: as §1
Cell proliferation was measured by SRB assay.

[13] = tested on: K562/Dox; assay: Growth inhibition assay (MTT, 96 h); format: cell-based, human
From the text: as §1

[14] = tested on: MES-SA/DX5 xenografts; assay: In vivo antitumor efficacy, MES-SA/DX5 xenograft; conditions: MES-SA/DX5 xenograft, 5 mg/kg, q2d, i.p.
Method: (§2) The control group was treated with vehicle (10% DMSO in PEG300).

[15] = tested on: HEK293-pcDNA3.1; assay: Growth inhibition assay (96 h); format: cell-based, human; conditions: HEK293-pcDNA3.1 (control for MRP)
From the text: as §1

[16] = tested on: MES-SA/DX5; assay: Growth inhibition assay (96 h); format: cell-based, human; conditions: MES-SA/DX5 vs MES-SA (P-gp)
From the text: as §1

[17] = tested on: PC-3; assay: Growth inhibition assay (SRB, 96 h); format: cell-based, human; conditions: Homo sapiens, PC-3, 96 h
From the text: as §1

[18] = tested on: MES-SA xenografts; assay: In vivo antitumor efficacy, MES-SA xenograft; design: species or system mice; conditions: 5 mg/kg, q2d, i.p.
Method: as §2

[19] = tested on: K562; assay: Cell viability MTT assay, 96 h; format: cell-based; conditions: Homo sapiens
Method: (§3) Cells were seeded in 96-well plates and incubated with different concentrations of compound 13, 68 or other anticancer drugs for 96 h. Cell viability was quantitated by MTT assay. […] Table 4 is a comparison of the IC50 of compounds 13, 68 and other anticancer drugs in the K562 and doxorubicin-resistant K562/DOX cell lines.

[20] = tested on: K562/Dox; assay: Cell viability MTT assay, 96 h; format: cell-based; conditions: Homo sapiens, doxorubicin-resistant
Method: as §3

[21] = tested on: HEK293-pcDNA3-10; assay: Growth inhibition assay (96 h); format: cell-based, human; conditions: HEK293-pcDNA3-10 (control for BCRP)
From the text: as §1

[22] = tested on: HEK293-482R2; assay: Growth inhibition assay (96 h); format: cell-based, human; conditions: HEK293-482R2, BCRP over-expressed, 96 h
[23] = tested on: PC-3 xenograft; assay: Antitumor activity in PC-3 xenograft; format: in vivo, Balb/c mice; conditions: 15 mg/kg/d for 4 days
Method: PC-3 tumor cells (2×10^6 cells) were suspended in saline and injected S.C. in both flanks of recipient mice (n=15). Tumor size was measured every other day and volume calculated as V=π/6*(length)x(width)^2 (75). […] Tumor growth and body weight was monitored every other day for the remainder of the study.

[24] = tested on: HT-29; conditions: HT-29 cells, literature value (Rose 1995); cited from earlier work
[25] = tested on: MCF-7; conditions: MCF-7 cells, literature value (Rose 1995); cited from earlier work

## CC(=O)O[C@@]12CO[C@@H]1C[C@H](O)[C@@]1(C)C(=O)[C@H](O)C3=C(C)[C@@H](OC(=O)[C@H](O)[C@@H](NC(=O)OC(C)(C)C)c4ccccc4)C[C@@](O)([C@@H](OC(=O)c4ccccc4)[C@H]21)C3(C)C [Docetaxel]
[1]
  IC50 at 96 h: 31.3 ± 5 nM
[2]
  resistance factor (ratio of IC50 resistant subline to parental cell line): (7.2)
[2]; listed as docetaxel
  resistance factor (ratio of IC50 resistant subline to parental cell line): 7.2
[3]
  IC50: 2.6 ± 0.9 nM
[4]
  IC50: 3.8 ± 0.8 nM
[5]
  IC50: 4.1 ± 0.2 nM
[6]; PC-3 xenograft, 2 days/week
  end of study survival rate: less than 30%
[6]; male, nu/nu, mouse, in vivo, 3 weeks
  mice survived after 3 weeks: 70%
[7]
  IC50 at 96 h: 33.1 ± 4 nM
[8]
  resistance factor (ratio of IC50 resistant subline to parental cell line): (7.6)
[8]; listed as docetaxel
  resistance factor (ratio of IC50 resistant subline to parental cell line): 7.6
[9]
  IC50: 2.7 ± 1 nM
[10]
  microtubule changes by immunofluorescence: stabilization of microtubules
[11]
  EC50: 14 nM
[12]
  IC50: 1.1 to 6.3 nM
[13]; Homo sapiens, K562/Dox, P-gp over-expressed, 96 h
  IC50: 548 ± 76 nM
[13]; K562/Dox vs K562 (P-gp)
  resistance factor (ratio of IC50 resistant subline to parental cell line): (203)
[14]
  TGI (tumor growth inhibition): 9%
[15]; Homo sapiens
  IC50: 4.4 ± 2 nM
[16]
  resistance factor (ratio of IC50 resistant subline to parental cell line): (13)
[17]
  IC50: 6 nM
[18]
  TGI (tumor growth inhibition): 54%

## COc1cccc2c1C(=O)c1c(O)c3c(c(O)c1C2=O)C[C@@](O)(C(=O)CO)C[C@@H]3O[C@H]1C[C@H](N)[C@H](O)[C@H](C)O1 [Doxirubicin]
[19]
  IC50: 27.1 ± 5.5 nM
[20]
  IC50: 859 ± 26.8 nM

## CCc1c2c(nc3ccc(O)cc13)-c1cc3c(c(=O)n1C2)COC(=O)[C@]3(O)CC [SN-38]
[2]; HEK293-MRP1, MRP1 over-expressed, 96 h
  IC50: 17.7 ± 1 nM
[8]; HEK293-MRP2, MRP2 over-expressed, 96 h
  IC50: 12.4 ± 1 nM
[15]
  IC50: 8.4 ± 1 nM
[21]
  IC50: 2.9 ± 0.3 nM
[22]
  IC50: 94.3 ± 20 nM

## CC(=O)O[C@H]1C(=O)[C@@]2(C)[C@H]([C@H](OC(=O)c3ccccc3)[C@]3(O)C[C@H](OC(=O)[C@H](O)[C@@H](NC(=O)c4ccccc4)c4ccccc4)C(C)=C1C3(C)C)[C@]1(OC(C)=O)CO[C@@H]1C[C@@H]2O [Taxol]
[23]
  PC-3 xenograft growth: potently suppressed
  body weight: significant decreases in body weight
[19]
  IC50: 12.2 ± 0.2 nM
[20]
  IC50: 1480 ± 480 nM
[24]
  IC50: ~2.5 nM
[25]
  IC50: ~2.5 nM
